The target of assay [1] is BRD4-BD2 (Homo sapiens (Human), UniProt O60885). Briefly: BRD4 AlphaScreen assay, BRD4-BD2. Format: binding. To be noted: biotin-labeled tetra-acetylated histone H4 peptide, 75 min, room temperature, read-out: BRD4 BD-2 enzyme IC50. Put shortly: (§1)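 IC50 values from percent-control versus log inhibitor fits after bead-based proximity readout (streptavidin donor, GSH acceptor, 75 min dark). Reactions: 75 min RT, pH 7.4 HEPES, biotin-H4Ac4 peptide 50 nM, with BD1 at 3.8 nM (DMSO 1.25%) and BD2 at 20 nM (DMSO 0.83%).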

Assay [2] deals with BRD4-BD1 (Homo sapiens (Human), UniProt O60885). The assay can be described thus: BRD4 AlphaScreen assay, BRD4-BD1. Format: binding. To be noted: biotin-labeled tetra-acetylated histone H4 peptide, 75 min, room temperature, read-out: BRD4 BD-1 enzyme IC50. The method, boiled down: as §1
On the technique in general: Bead proximity is the source of the signal in Alpha formats.

This note sets out measurements from patent US9777003B2, “Tricyclic heterocycles as bet protein inhibitors” (Incyte Corporation, priority 2013, dated 2017).

Counter-ions that a name gives are not always drawn.

One may read the IC50 as the midpoint of a concentration-inhibition curve.

In the case of `Cc1nnc2ccc3c(cc(C(=O)NCC(C)C)n3Cc3ccccc3)n12` [Example 125, 6-Benzyl-N-isobutyl-1-methyl-6H-pyrrolo[2,3-e][1,2,4]triazolo[4,3-a]pyridine-7-carboxamide Trifluoroacetate], the IC50 in assay [1] and in assay [2] was 100 to 1000 nM each time.

Regarding `Cc1cc2c(ccc3nnc(C)n32)n1Cc1cccc(CNCCO)c1` [Example 36, 2-({3-[(1,7-dimethyl-6H-pyrrolo[2,3-e][1,2,4]triazolo[4,3-a]pyridin-6-yl)methyl]benzyl}amino)ethanol], the IC50 in assay [1] and in assay [2] was at most 100 nM throughout.

For the compound `Cc1cc2c(cc(N[C@H]3CCN(C)[C@H](C)C3)c3nnc(C)n32)n1Cc1ccccc1` (racemic) [Example 225, 6-Benzyl-N-[(2R,4S)-1,2-dimethylpiperidin-4-yl]-1,7-dimethyl-6H-pyrrolo[2,3-e][1,2,4]triazolo[4,3-a]pyridin-4-amine and 6-Benzyl-N-[(2S,4R)-1,2-dimethylpiperidin-4-yl]-1,7-dimethyl-6H-pyrrolo[2,3-e][1,2,4]triazolo[4,3-a]pyridin-4-amine], the 50% inhibitory concentration (IC50) in assay [1] and in assay [2] was at most 100 nM each time.

In the case of `Cc1nnc2ccc3c(cc(-c4ccn(CCC(=O)NC5CCOCC5)n4)n3Cc3cccc(Cl)c3)n12` [Example 170, 3-{3-[6-(3-Chlorobenzyl)-1-methyl-6H-pyrrolo[2,3-e][1,2,4]triazolo[4,3-a]pyridin-7-yl]-1H-pyrazol-1-yl}-N-(tetrahydro-2H-pyran-4-yl)propanamide Trifluoroacetate Salt], the IC50 in assay [1] and in assay [2] was at most 100 nM in each case.

As for `Cc1cc2c(ccc3nnc(C)n32)n1Cc1cccc(CN[C@H]2C[C@H](O)C2)c1` [Example 39, (1r,3r)-3-((3-((1,7-dimethyl-6H-pyrrolo[2,3-e][1,2,4]triazolo[4,3-a]pyridin-6-yl)methyl)benzyl)amino)cyclobutanol], the figures for the half-maximal inhibitory concentration (IC50) in assay [1] and in assay [2] were at most 100 nM and 100 to 1000 nM, respectively.

Consider `COC(=O)Nc1cc2c(cc(C)n2Cc2ccccc2)n2c(C)nnc12` [Example 272, Methyl 6-benzyl-1,7-dimethyl-6H-pyrrolo[2,3-e][1,2,4]triazolo[4,3-a]pyridin-4-ylcarbamate], for which the IC50 in assay [1] and in assay [2] was at most 100 nM throughout.

Turning to `Cc1cc2c(cc(NC(N)=O)c3nnc(C)n32)n1Cc1cccc(F)c1` [Example 235, 1-(6-(3-Fluorobenzyl)-1,7-dimethyl-6H-pyrrolo[2,3-e][1,2,4]triazolo[4,3-a]pyridin-4-yl)urea], the IC50 in assay [1] and in assay [2] was at most 100 nM throughout.

For `Cc1cc2c(ccc3nnc(C)n32)n1Cc1cccc(CN2CC(O)C2)c1` [Example 27, 1-(3-((1,7-dimethyl-6H-pyrrolo[2,3-e][1,2,4]triazolo[4,3-a]pyridin-6-yl)methyl)benzyl)azetidin-3-ol bis-trifluoroacetate Salt], the IC50 in assay [1] and in assay [2] was at most 100 nM throughout.

As for `CNC(=O)Nc1cc2c(cc(C)n2Cc2cc(Cl)cc(CN3CCCC3)c2)n2c(C)nnc12` [Example 142, N-{6-[3-Chloro-5-(pyrrolidin-1-ylmethyl)benzyl]-1,7-dimethyl-6H-pyrrolo[2,3-e][1,2,4]triazolo[4,3-a]pyridin-4-yl}-N′-methylurea bis(trifluoroacetate) Salt], the IC50 in assay [1] and in assay [2] was at most 100 nM each time.

Regarding `Cc1cc2c(ccc3nnc(C)n32)n1Cc1ccc(F)cc1` [Example 16, 6-(4-fluorobenzyl)-1,7-dimethyl-6H-pyrrolo[2,3-e][1,2,4]triazolo[4,3-a]pyridine], the concentration for half-maximal inhibition (IC50) in assay [1] and in assay [2] was at most 100 nM in each case.

Take `Cc1cc2c(cc(Nc3ncccn3)c3nnc(C)n32)n1Cc1ccccc1` [Example 201, 6-Benzyl-1,7-dimethyl-N-pyrimidin-2-yl-6H-pyrrolo[2,3-e][1,2,4]triazolo[4,3-a]pyridin-4-amine tris(trifluoroacetate) Salt]: the 50% inhibitory concentration (IC50) in assay [1] and in assay [2] was at most 100 nM each time.

Regarding `Cc1cc2c(cc(NC(=O)N(C)C)c3nnc(C)n32)n1Cc1ccccc1` [Example 251, 3-(6-Benzyl-1,7-dimethyl-6H-pyrrolo[2,3-e][1,2,4]triazolo[4,3-a]pyridin-4-yl)-1,1-dimethylurea], the concentration for half-maximal inhibition (IC50) in assay [1] was at most 100 nM; in assay [2] it was 100 to 1000 nM.

With `COC1CN(Cc2cccc(Cn3c(C)cc4c3ccc3nnc(C)n34)c2)C1` [Example 54, 6-{3-[(3-methoxyazetidin-1-yl)methyl]benzyl}-1,7-dimethyl-6H-pyrrolo[2,3-e][1,2,4]triazolo[4,3-a]pyridine], the IC50 is at most 100 nM in assay [1] and 100 to 1000 nM in assay [2].

As to `Cc1nnc2ccc3c(cc(-c4ccn(CCC(=O)NC5CN(C)C5)n4)n3Cc3cccc(Cl)c3)n12` [Example 171, 3-{3-[6-(3-Chlorobenzyl)-1-methyl-6H-pyrrolo[2,3-e][1,2,4]triazolo[4,3-a]pyridin-7-yl]-1H-pyrazol-1-yl}-N-(1-methylazetidin-3-yl)propanamide bis(trifluoroacetate) Salt], the concentration for half-maximal inhibition (IC50) in assay [1] and in assay [2] was at most 100 nM throughout.

As for `Cc1cc2c(ccc3nnc(C)n32)n1Cc1ccc(O)cc1` [Example 35, 4-[(1,7-dimethyl-6H-pyrrolo[2,3-e][1,2,4]triazolo[4,3-a]pyridin-6-yl)methyl]phenol], the concentration for half-maximal inhibition (IC50) in assay [1] and in assay [2] was at most 100 nM in each case.

Consider `CNC(=O)c1cc2c(ccc3nnc(C)n32)n1Cc1cccc(F)c1` [Example 102, 6-(3-fluorobenzyl)-N,1-dimethyl-6H-pyrrolo[2,3-e][1,2,4]triazolo[4,3-a]pyridine-7-carboxamide], for which the IC50 in assay [1] and in assay [2] was at most 100 nM in each case.

In the case of `Cc1nnc2ccc3c(cc(C#N)n3Cc3ccccc3)n12` [Example 227, 6-Benzyl-1-methyl-6H-pyrrolo[2,3-e][1,2,4]triazolo[4,3-a]pyridine-7-carbonitrile Trifluoroacetate Salt], the half-maximal inhibitory concentration (IC50) in assay [1] and in assay [2] was at most 100 nM each time.

Turning to `CCNC(=O)Nc1cc2c(cc(C)n2Cc2ccccc2)n2c(C)nnc12` [Example 249, 1-(6-Benzyl-1,7-dimethyl-6H-pyrrolo[2,3-e][1,2,4]triazolo[4,3-a]pyridin-4-yl)-3-ethylurea], the IC50 in assay [1] and in assay [2] was at most 100 nM throughout.

Consider `Cc1nnc2ccc3c(cc(C(=O)NC4CN(C)C4)n3Cc3cccc(Cl)c3)n12` [Example 118, 6-(3-Chlorobenzyl)-1-methyl-N-(1-methylazetidin-3-yl)-6H-pyrrolo[2,3-e][1,2,4]triazolo[4,3-a]pyridine-7-carboxamide bis(trifluoroacetate) Salt], for which the 50% inhibitory concentration (IC50) in assay [1] and in assay [2] was 100 to 1000 nM in each case.

In the case of `Cc1cc2c(cc(N[C@H]3C[C@H](O)C3)c3nnc(C)n32)n1Cc1ccccc1` [Example 247, trans-3-(6-Benzyl-1,7-dimethyl-6H-pyrrolo[2,3-e][1,2,4]triazolo[4,3-a]pyridin-4-ylamino)cyclobutanol], the half-inhibitory concentration (IC50) in assay [1] and in assay [2] was at most 100 nM in each case.

On to `Cc1cc2c(cc(NC3CCN(S(C)(=O)=O)CC3)c3nnc(C)n32)n1Cc1ccccc1` [Example 211, 6-Benzyl-1,7-dimethyl-N-[1-(methylsulfonyl)piperidin-4-yl]-6H-pyrrolo[2,3-e][1,2,4]triazolo[4,3-a]pyridin-4-amine], for which the half-inhibitory concentration (IC50) in assay [1] and in assay [2] was at most 100 nM throughout.

In the case of `Cc1nnc2ccc3c(cc(-c4ncco4)n3Cc3cccc(Cl)c3)n12` [Example 194, 6-(3-Chlorobenzyl)-1-methyl-7-(1,3-oxazol-2-yl)-6H-pyrrolo[2,3-e][1,2,4]triazolo[4,3-a]pyridine Trifluoroacetate Salt], the concentration for half-maximal inhibition (IC50) in assay [1] and in assay [2] was at most 100 nM throughout.

`Cc1nnc2ccc3c(cc(-c4ccn(CCC(=O)N(C)C)n4)n3Cc3ccccc3)n12` [Example 95, 3-[3-(6-benzyl-1-methyl-6H-pyrrolo[2,3-e][1,2,4]triazolo[4,3-a]pyridin-7-yl)-1H-pyrazol-1-yl]-N,N-dimethylpropanamide]: the 50% inhibitory concentration (IC50) in assay [1] and in assay [2] was at most 100 nM in each case.

As for `Cc1nnc2ccc3c(cc(C(=O)N4CCOCC4)n3Cc3cccc(Cl)c3)n12` [Example 116, 6-(3-Chlorobenzyl)-1-methyl-7-(morpholin-4-ylcarbonyl)-6H-pyrrolo[2,3-e][1,2,4]triazolo[4,3-a]pyridine Trifluoroacetate Salt], the IC50 in assay [1] and in assay [2] was 1000 to 10000 nM in each case.

With `Cc1cc2c(ccc3nnc(C)n32)n1Cc1ccc(Cl)cc1` [Example 10, 6-(4-chlorobenzyl)-1,7-dimethyl-6H-pyrrolo[2,3-e][1,2,4]triazolo[4,3-a]pyridine], the concentration for half-maximal inhibition (IC50) in assay [1] and in assay [2] was at most 100 nM throughout.

On to `Cc1cc2c(ccc3nnc(C)n32)n1Cc1cccc(NC(N)=O)c1` [Example 44, N-{3-[(1,7-dimethyl-6H-pyrrolo[2,3-e][1,2,4]triazolo[4,3-a]pyridin-6-yl)methyl]phenyl}urea], for which the figures for the half-maximal inhibitory concentration (IC50) in assay [1] and in assay [2] were at most 100 nM and 100 to 1000 nM, respectively.

Turning to `CC(=O)N1CCC(c2cc3c(ccc4nnc(C)n43)n2Cc2ccccc2)C1` (racemic) [Example 187, 7-(1-Acetylpyrrolidin-3-yl)-6-benzyl-1-methyl-6H-pyrrolo[2,3-e][1,2,4]triazolo[4,3-a]pyridine Trifluoroacetate Salt], the concentration for half-maximal inhibition (IC50) in assay [1] and in assay [2] was 1000 to 10000 nM throughout.

With `Cc1nnc2ccc3c(cc(-c4ccsc4)n3Cc3ccccc3)n12` [Example 72, 6-benzyl-1-methyl-7-(3-thienyl)-6H-pyrrolo[2,3-e][1,2,4]triazolo[4,3-a]pyridine], the IC50 in assay [1] and in assay [2] was at most 100 nM each time.
